# Target: T1, GCase (Homo sapiens, UniProt P04062)
# T1 construct: endogenous in cells; host or cells: HeLa cells
# T1 sequence (P04062 40-536): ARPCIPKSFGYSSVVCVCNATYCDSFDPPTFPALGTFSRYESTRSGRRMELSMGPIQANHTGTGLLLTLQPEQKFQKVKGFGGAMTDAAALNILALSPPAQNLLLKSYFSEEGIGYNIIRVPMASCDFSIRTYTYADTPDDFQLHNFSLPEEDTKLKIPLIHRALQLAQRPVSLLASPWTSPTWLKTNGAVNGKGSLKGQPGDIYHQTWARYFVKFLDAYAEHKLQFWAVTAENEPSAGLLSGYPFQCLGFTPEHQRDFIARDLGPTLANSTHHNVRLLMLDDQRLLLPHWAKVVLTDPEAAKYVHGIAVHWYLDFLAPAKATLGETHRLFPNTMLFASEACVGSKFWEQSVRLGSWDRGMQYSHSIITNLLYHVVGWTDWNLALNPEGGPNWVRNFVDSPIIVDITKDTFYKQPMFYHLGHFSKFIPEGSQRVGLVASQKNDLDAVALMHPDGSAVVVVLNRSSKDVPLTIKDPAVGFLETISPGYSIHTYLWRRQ
# Experiment: activation of GCase in a live cell PFB assay in HELA cells
# Assay type: cell-based
# Conditions: activation of GCase, EC50 ranges
# Procedure: Exemplary compounds were evaluated for activation of GCase in a live cell PFB assay in HELA cells (essentially as described in Ysselstein et al., “LRRK2 kinase activity regulates lysosomal glucocerebrosidase in neurons derived from Parkinson's disease patients” Nature Communications (2019) 10:5570). […] EC50 ranges: A: <10 μM; B: >10-50 μM; C: >50-100 μM; D: >100 μM.
row,Structure (SMILES),EC50 [µM]
1,CC1(C)CC2(CCN(c3cnc4cnn(CC(F)F)c4n3)CC2)C(=O)N1c1cc(C(F)(F)F)ccn1 [Cmpd 661],10 to 50
2,CC1(C)N(c2cc(C(F)(F)F)ccn2)C(=O)CC12CCN(c1cnc3cnn(CC(F)F)c3n1)CC2 [Cmpd 662],10 to 50
3,COc1cc(N2CCC3(CCN(c4cnc5cnn(CC(F)F)c5n4)CC3)C2=O)nc(C(F)(F)F)c1 [Cmpd 665],> 100
4,O=C1CC2(CCN1c1cnc3cnn(CC(F)F)c3n1)CN(c1cccc(C(F)(F)F)n1)C2 [Cmpd 667],50 to 100
5,CC1CC2(CCN(c3cccc(C(F)(F)F)n3)C2=O)CCN1c1cnc2cnn(CC(F)F)c2n1 (stereo not drawn) [Cmpd 668],< 10
6,CN(C)C(=O)c1cccc(N2CCC3(CCN(c4cnc5cnn(CC(F)F)c5n4)CC3)C2=O)n1 [Cmpd 671],< 10
7,O=C1N(c2ccc(C(F)(F)F)nc2)CCC12CCN(c1cnc3cnn(CC(F)F)c3n1)CC2 [Cmpd 673],< 10
8,O=C1N(c2cnccc2C(F)(F)F)CCC12CCN(c1cnc3cnn(CC(F)F)c3n1)CC2 [Cmpd 675],10 to 50
9,O=C1N(c2ccnc(C(F)(F)F)c2)CCC12CCN(c1cnc3cnn(CC(F)F)c3n1)CC2 [Cmpd 676],< 10
10,O=C1N(c2ccncc2C(F)(F)F)CCC12CCN(c1cnc3cnn(CC(F)F)c3n1)CC2 [Cmpd 677],10 to 50
11,O=C1N(c2ccc(C(F)(F)F)cn2)CCC12CCN(c1cnc3cnn(CC(F)F)c3n1)CC2 [Cmpd 678],10 to 50
12,O=C1CC2(CCN(c3cnc4cnn(CC(F)F)c4n3)CC2)CN1c1ccc(C(F)(F)F)nc1 [Cmpd 680],10 to 50
13,O=C1CC2(CCN(c3cnc4cnn(CC(F)F)c4n3)CC2)CN1c1cnccc1C(F)(F)F [Cmpd 682],10 to 50
14,O=C1CC2(CCN(c3cnc4cnn(CC(F)F)c4n3)CC2)CN1c1ccncc1C(F)(F)F [Cmpd 684],< 10
15,O=C1CC2(CCN(c3cnc4cnn(CC(F)F)c4n3)CC2)CN1c1ccc(C(F)(F)F)cn1 [Cmpd 685],10 to 50
16,FC(F)Cn1ncc2ncc(N3CCC4(CCC(Oc5cnccc5C(F)(F)F)C4)CC3)nc21 (stereo not drawn) [Cmpd 688],< 10
17,FC(F)Cn1ncc2ncc(N3CCC4(CCC(Oc5ncccc5C(F)(F)F)C4)CC3)nc21 (stereo not drawn) [Cmpd 689],10 to 50
18,FC(F)Cn1ncc2ncc(N3CCC4(CCC(Oc5ccnc(C(F)(F)F)c5)C4)CC3)nc21 (stereo not drawn) [Cmpd 690],< 10
19,FC(F)Cn1ncc2ncc(N3CCC4(CCC(Oc5cncc(C(F)(F)F)c5)C4)CC3)nc21 (stereo not drawn) [Cmpd 691],10 to 50
20,FC(F)Cn1ncc2ncc(N3CCC4(CCC(Oc5cc(C(F)(F)F)ccn5)C4)CC3)nc21 (stereo not drawn) [Cmpd 692],10 to 50
21,FC(F)Cn1ncc2ncc(N3CCC4(CCC(Oc5ccc(C(F)(F)F)cn5)C4)CC3)nc21 (stereo not drawn) [Cmpd 694],10 to 50

row,Structure (SMILES),EC50 [µM]
1,FC(F)Cn1ncc2ncc(N3CCC4(CC3)CC(COc3ccncc3C(F)(F)F)C4)nc21 [Cmpd 698],< 10
2,FC(F)Cn1ncc2ncc(N3CCC4(CC3)CC(COc3ncccc3C(F)(F)F)C4)nc21 [Cmpd 700],< 10
3,FC(F)Cn1ncc2ncc(N3CCC4(CC3)CC(COc3ccc(C(F)(F)F)nc3)C4)nc21 [Cmpd 701],10 to 50
4,FC(F)Cn1ncc2ncc(N3CCC4(CC3)CC(Oc3ccnc(C(F)(F)F)c3)C4)nc21 [Cmpd 703],< 10
5,FC(F)Cn1ncc2ncc(N3CCC4(CC3)CC(Oc3cncc(C(F)(F)F)c3)C4)nc21 [Cmpd 704],< 10
6,FC(F)Cn1ncc2ncc(N3CCC4(CC3)CC(Oc3ccncc3C(F)(F)F)C4)nc21 [Cmpd 706],< 10
7,FC(F)Cn1ncc2ncc(N3CCC4(CC3)CC(Oc3cnccc3C(F)(F)F)C4)nc21 [Cmpd 707],10 to 50
8,FC(F)Cn1ncc2ncc(N3CCC4(CC3)CC(Oc3ncccc3C(F)(F)F)C4)nc21 [Cmpd 708],10 to 50
9,FC(F)Cn1ncc2ncc(N3CCC4(CC3)CC(Oc3ccc(C(F)(F)F)nc3)C4)nc21 [Cmpd 709],10 to 50
10,FC(F)Cn1ncc2ncc(N3CCC4(CC3)CC(Oc3ccc(C(F)(F)F)cn3)C4)nc21 [Cmpd 710],10 to 50
11,COCCN1C(=O)N(c2cc(C(F)(F)F)ccn2)C(=O)C12CCN(c1cnc3cnn(CC(F)F)c3n1)CC2 [Cmpd 713],< 10
12,O=C1N(c2cc(C(F)(F)F)ccn2)C(=O)C2(CCN(c3cnc4cnn(CC(F)F)c4n3)CC2)N1Cc1ccc(F)cc1F [Cmpd 714],< 10
13,O=C1N(c2cc(C(F)(F)F)ccn2)C(=O)C2(CCN(c3cnc4cnn(CC(F)F)c4n3)CC2)N1Cc1cc(F)ccc1F [Cmpd 718],< 10
14,O=C1N(c2cc(C(F)(F)F)ccn2)C(=O)C2(CCN(c3cnc4cnn(CC(F)F)c4n3)CC2)N1Cc1ccc(F)c(F)c1 [Cmpd 719],< 10
15,O=C1CC2(CN1c1ccc(F)c(C(F)(F)F)c1)C1CC2CN(c2cnc3cnn(CC(F)F)c3n2)C1 (stereo not drawn) [Cmpd 722],10 to 50
16,O=C1CC2(CC3CCC(C2)N3c2cnc3cnn(CC(F)F)c3n2)CN1c1cc(C(F)(F)F)ccn1 (stereo not drawn) [Cmpd 723],10 to 50
17,CC1CC2(CCN1c1cnc3cnn(CC(F)F)c3n1)CC(=O)N(c1cc(C(F)(F)F)ccn1)C2 (stereo not drawn) [Cmpd 726],10 to 50
18,O=C1CC2(CCN(c3cnc4cnn(CC(F)F)c4n3)CC2)CN1c1ccc(F)cc1F [Cmpd 728],10 to 50
19,Fc1ccc(N2CCC3(CCN(c4cnc5cnn(CC(F)F)c5n4)CC3)C2)c(F)c1 [Cmpd 730],10 to 50
20,FC(F)Cn1ncc2ncc(N3CCC4(CCN(c5ccc(C(F)(F)F)nn5)C4)CC3)nc21 [Cmpd 732],10 to 50

# Second part, the compound after the results:
row,EC50 [µM],Structure (SMILES)
1,10 to 50,CCC1N(c2cc(C(F)(F)F)ccn2)C(=O)CC12CCN(c1cnc3cnn(CC(F)F)c3n1)CC2 (stereo not drawn) [Cmpd 663]
2,10 to 50,O=C1N(c2nc(C(F)(F)F)c(F)cc2F)CCC12CCN(c1cnc3cnn(CC(F)F)c3n1)CC2 [Cmpd 664]
3,< 10,Cn1c(N2CCC3(CCN(c4cnc5cnn(CC(F)F)c5n4)CC3)C2=O)cc(=O)cc1C(F)(F)F [Cmpd 666]
4,10 to 50,CC1CN(c2cnc3cnn(CC(F)F)c3n2)CC[C@@]12CCN(c1cccc(C(F)(F)F)n1)C2=O (stereo partly drawn) [Cmpd 670]
5,10 to 50,COCCOc1cccc(N2CCC3(CCN(c4cnc5cnn(CC(F)F)c5n4)CC3)C2=O)n1 [Cmpd 672]
6,< 10,O=C1N(c2cncc(C(F)(F)F)c2)CCC12CCN(c1cnc3cnn(CC(F)F)c3n1)CC2 [Cmpd 674]
7,10 to 50,O=C1N(c2ncccc2C(F)(F)F)CCC12CCN(c1cnc3cnn(CC(F)F)c3n1)CC2 [Cmpd 679]
8,10 to 50,O=C1CC2(CCN(c3cnc4cnn(CC(F)F)c4n3)CC2)CN1c1cncc(C(F)(F)F)c1 [Cmpd 681]
9,< 10,O=C1CC2(CCN(c3cnc4cnn(CC(F)F)c4n3)CC2)CN1c1ccnc(C(F)(F)F)c1 [Cmpd 683]
10,> 100,O=C1CC2(CCN(c3cnc4cnn(CC(F)F)c4n3)CC2)CN1c1ncccc1C(F)(F)F [Cmpd 686]
11,< 10,FC(F)Cn1ncc2ncc(N3CCC4(CCC(Oc5ccncc5C(F)(F)F)C4)CC3)nc21 (stereo not drawn) [Cmpd 687]
12,< 10,FC(F)Cn1ncc2ncc(N3CCC4(CCC(Oc5ccc(C(F)(F)F)nc5)C4)CC3)nc21 (stereo not drawn) [Cmpd 693]
13,< 10,FC(F)Cn1ncc2ncc(N3CCC4(CC3)CC(COc3ccnc(C(F)(F)F)c3)C4)nc21 [Cmpd 695]
14,< 10,FC(F)Cn1ncc2ncc(N3CCC4(CC3)CC(COc3cncc(C(F)(F)F)c3)C4)nc21 [Cmpd 696]
15,10 to 50,FC(F)Cn1ncc2ncc(N3CCC4(CC3)CC(COc3cc(C(F)(F)F)ccn3)C4)nc21 [Cmpd 697]
16,< 10,FC(F)Cn1ncc2ncc(N3CCC4(CC3)CC(COc3cnccc3C(F)(F)F)C4)nc21 [Cmpd 699]
17,10 to 50,FC(F)Cn1ncc2ncc(N3CCC4(CC3)CC(COc3ccc(C(F)(F)F)cn3)C4)nc21 [Cmpd 702]
18,10 to 50,FC(F)Cn1ncc2ncc(N3CCC4(CC3)CC(Oc3cc(C(F)(F)F)ccn3)C4)nc21 [Cmpd 705]
19,10 to 50,O=C1N(c2cc(C(F)(F)F)ccn2)C(=O)C2(CCN(c3cnc4cnn(CC(F)F)c4n3)CC2)N1CC1CC1 [Cmpd 711]
20,10 to 50,O=C1N(c2cc(C(F)(F)F)ccn2)C(=O)C2(CCN(c3cnc4cnn(CC(F)F)c4n3)CC2)N1CCC1CC1 [Cmpd 712]
21,< 10,O=C1N(c2cc(C(F)(F)F)ccn2)C(=O)C2(CCN(c3cnc4cnn(CC(F)F)c4n3)CC2)N1Cc1c(F)cccc1F [Cmpd 715]
22,< 10,O=C1N(c2cc(C(F)(F)F)ccn2)C(=O)C2(CCN(c3cnc4cnn(CC(F)F)c4n3)CC2)N1Cc1cc(F)cc(F)c1 [Cmpd 716]
23,< 10,O=C1N(c2cc(C(F)(F)F)ccn2)C(=O)C2(CCN(c3cnc4cnn(CC(F)F)c4n3)CC2)N1Cc1cccc(F)c1F [Cmpd 717]
24,> 100,O=C1CC2(CN1c1ccnc(C(F)(F)F)c1)C1CC2CN(c2cnc3cnn(CC(F)F)c3n2)C1 (stereo not drawn) [Cmpd 721]
25,10 to 50,O=C1CC2(CN1c1cc(C(F)(F)F)ccn1)C1CCC2CN(c2cnc3cnn(CC(F)F)c3n2)C1 (stereo not drawn) [Cmpd 724]
26,10 to 50,CC1CN(c2cnc3cnn(CC(F)F)c3n2)CCC12CC(=O)N(c1cc(C(F)(F)F)ccn1)C2 (stereo not drawn) [Cmpd 725]
27,< 10,O=C1CC2(CCN(c3cnc4cnn(CC(F)F)c4n3)CC2)CN1c1ccc(C(F)(F)F)cc1F [Cmpd 729]
28,10 to 50,FC(F)Cn1ncc2ncc(N3CCC4(CCN(c5cnnc(C(F)(F)F)c5)C4)CC3)nc21 [Cmpd 731]

# Source: patent US20250034170A1, “SMALL MOLECULE MODULATORS OF GLUCOCEREBROSIDASE ACTIVITY AND USES THEREOF” (Vanqua Bio, Inc., priority 2021, published 2025)
